≈ marks a conversion by molar mass, not a printed value. Like-named read-outs stand apart in the source and are kept apart here.
Experiments:
[1] = system: L. braziliensis promastigotes; assay: Leishmanicidal activity on L. braziliensis promastigotes (resazurin); format: cell-based, Leishmania braziliensis; conditions: 48 h; for IC50: Leishmania braziliensis, read-out: Leishmanicidal Activity on Promastigotes, L. braziliensis, IC50
Procedure: (§1) Culture of L. braziliensis (MHOM/BR/75/M2904), and L. infantum (MHOM/FR/91/LEM2259V) was obtained from the Facultad de Farmacia (Universidad Complutense de, Madrid, Spain). The maintenance of the strains, the form of cultivation, and the isolation of shape promastigota were performed following the procedures described by Roldos et al.. The promastigotes were grown at 22 °C in Schneider’s Drosophila medium supplemented with 20% FBS. The assay was performed using a modification of a previous method. Promastigotes (2 × 10^6 parasites/well) were cultured in 96-well plastic plates. Compounds were dissolved in dimethylsulfoxide (DMSO). Different dilutions of the compounds with a final volume up to 200 µL were added. After 48 h at 26 °C, 20 µL of a 2 mM resazurin solution was added, and the oxidation-reduction was quantified at 570 and 600 nm. The solution of resazurin was prepared at 2.5 mM in phosphate buffered solution (PBS), pH 7.4, and filtered through 0.22 µm prior to use. All tests were carried out in triplicate. Resazurin sodium salt was obtained from Sigma-Aldrich (St. Louis, MO, USA) and stored at 4 °C protected from light. The efficacy of each compound was estimated by calculating the IC50 values.

[2] = system: L. infantum promastigotes; assay: Leishmanicidal activity on L. infantum promastigotes (resazurin); format: cell-based, Leishmania infantum; conditions: 48 h; for IC50: Leishmania infantum, read-out: Leishmanicidal Activity on Promastigotes, L. infantum, IC50
Procedure: as §1

[3] = system: T. cruzi epimastigotes; assay: Antiepimastigote activity, T. cruzi CL-B5 lacZ (CPRG); format: cell-based, Trypanosoma cruzi; conditions: clone CL-B5, 72 h; for IC50: Trypanosoma cruzi
Procedure: For in vitro studies of T. cruzi, the clone CL-B5 was used (donated by Faculty of Pharmacy, Complutense University, Madrid, Spain). Parasites were stably transfected with the Escherichia coli β-galactosidase gene (lacZ). Epimastigotes were grown at 28 °C in liver infusion tryptose broth (Difco, Detroit, MI, USA) with 10% fetal bovine serum (FBS) (Gibco, Carlsbad, CA, USA), penicillin (Ern S.A., Barcelona, Spain), and streptomycin (Reig Jofré S.A., Barcelona, Spain), as described previously, and harvested during the exponential growth phase. Briefly, the screening assay was performed in 96-well microplates (Sarstedt, Inc., Newton, NC, USA) with cultures that had not reached the stationary phase. Epimastigotes were seeded at 2 × 10^5 parasites/mL in 200 µL growth media. The plates were then incubated with the respective compounds at 28 °C for 72 h; afterwards, 50 µL of chlorophenol red-β-D-galactopyranoside (CPRG) solution was added, resulting in a final concentration of 200 µM. The plates were incubated at 37 °C for an additional 4 h and then read at 595 nm. Each concentration was tested in triplicate. The efficacy of each compound was estimated by calculating the IC50 values. These values were calculated by the sigmoidal dose–response curve adjustment using the statistical software program Graph-Pad Prims 3.0 (GraphPhad, San Diego, CA, USA). Benznidazole was used as the reference drug.

[4] = Cytotoxicity on NCTC-Clone 929 fibroblasts (resazurin); format: cell-based; conditions: mouse
Procedure: The cell line used was NCTC-Clone 929, which was grown in Minimal Essential Medium (Sigma) supplemented with 10% heat-inactivated FBS, penicillin G (100 U/mL), and streptomycin (100 µg/mL). Cell cultures were maintained at 37 °C in a humidified 5% CO2 atmosphere. The procedure for cell viability measurement was evaluated with resazurin by a colorimetric method. The cells were plated in 96-microtiter plates at 3 × 10^4 cells per well in a 100 µL growth medium. The cells were grown overnight at 37 °C, 5% CO2. Thereafter, the medium was removed and the compounds were added in a 200 µL medium for 24 h. After incubation, 20 µL of a 2 mM resazurin solution was added to each well. The plates were incubated for 3 h to allow optimal oxidation-reduction. The reduction of resazurin was determined by dual wavelength absorbance measurement at 490 and 595 nm. Background was subtracted. Each concentration was assayed three times. Medium and drug controls were used in each test as blanks.

| SMILES | IC50 [1] [µg/mL] | IC50 [2] [µg/mL] | IC50 [3] [µg/mL] | IC50 at 24 h [4] [µg/mL] | IC50 ([1]; promastigotes) [µg/mL] | IC50 ([2]; promastigotes) [µg/mL] | Leishmanicidal Activity on Promastigotes, L. braziliensis, IC50 ([1]; promastigotes) [µg/mL] | Leishmanicidal Activity on Promastigotes, L. infantum, IC50 ([2]; promastigotes) [µg/mL] | Antiepimastigote Activity of T. cruzi, IC50 [3] [µg/mL] |
| --- | --- | --- | --- | --- | --- | --- | --- | --- | --- |
| CC(C)c1ccc2c(c1)CCC1[C@](C)(COC(=O)CCCCc3cn(CSc4ccccc4)nn3)CCC[C@]21C (stereo partly shown) [Compound 10] | > 256 | > 256 | > 256 | > 256 |  |  |  |  |  |
| COC(=O)[C@]12CCC(C)(C)C[C@H]1C1=CCC3[C@@]4(C)CC[C@H](OC(=O)CCc5cn(-c6ccc(OC)cc6)nn5)C(C)(C)C4CC[C@@]3(C)[C@]1(C)CC2 (stereo partly shown) [Compound 24] | > 256 | > 256 | > 256 | > 256 |  |  |  |  |  |
| COc1ccc(-n2cc(CCC(=O)O[C@H]3CC[C@@]4(C)C(CC[C@]5(C)C4CC=C4[C@@H]6CC(C)(C)CC[C@]6(C(=O)O)CC[C@]45C)C3(C)C)nn2)cc1 (stereo partly shown) [Compound 23] | > 256 | > 256 | > 256 | > 256 |  |  |  |  |  |
| CC(C)c1ccc2c(c1)CCC1[C@](C)(C(=O)OCCc3cn(CSc4ccccc4)nn3)CCC[C@]21C (stereo partly shown) [Compound 4] |  |  | 61 (≈ 118 µM) | 189 (≈ 365 µM) | 64 (≈ 124 µM) | 64 (≈ 124 µM) |  |  |  |
| CC(C)c1ccc2c(c1)CCC1[C@](C)(C(=O)OCc3cn(-c4ccccc4)nn3)CCC[C@]21C (stereo partly shown) [Compound 1] |  |  | 46 (≈ 101 µM) | > 256 | 53 (≈ 116 µM) | 60 (≈ 131 µM) |  |  |  |
| COc1ccc(-n2cc(CCCCC(=O)OC[C@]3(C)CCC[C@]4(C)c5ccc(C(C)C)cc5CCC34)nn2)cc1 (stereo partly shown) [Compound 12] | > 256 | > 256 | > 256 | > 256 |  |  |  |  |  |
| CC(C)c1ccc2c(c1)CCC1[C@](C)(COC(=O)CCCCc3cn(Cc4cccc(Cl)c4)nn3)CCC[C@]21C (stereo partly shown) [Compound 14] | > 256 | > 256 | > 256 | > 256 |  |  |  |  |  |
| N=C(N)c1ccc(OCCCCCOc2ccc(C(=N)N)cc2)cc1 [Pentamidine, reference compound] |  |  |  |  | 3.3 (≈ 9.69 µM) | 3.3 (≈ 9.69 µM) |  |  |  |
| CC1(C)CC[C@]2(C(=O)O)CC[C@]3(C)C(=CCC4[C@@]5(C)CC[C@H](OC(=O)CCc6cn(CSc7ccccc7)nn6)C(C)(C)C5CC[C@]43C)[C@@H]2C1 (stereo partly shown) [Compound 29] | > 256 | > 256 | > 256 | > 256 |  |  |  |  |  |
| C#CCCCC(=O)O[C@H]1CC[C@@]2(C)C(CC[C@]3(C)C2CC=C2[C@@H]4CC(C)(C)CC[C@]4(C(=O)OC)CC[C@]23C)C1(C)C (stereo partly shown) [Compound 20] | > 256 | > 256 | > 256 | > 256 |  |  |  |  |  |
| COC(=O)[C@]12CCC(C)(C)C[C@H]1C1=CCC3[C@@]4(C)CC[C@H](OC(=O)CCc5cn(Cc6ccc(Cl)cc6)nn5)C(C)(C)C4CC[C@@]3(C)[C@]1(C)CC2 (stereo partly shown) [Compound 26] | > 256 | > 256 | > 256 | > 256 |  |  |  |  |  |
| C#CCCCC(=O)O[C@H]1CC[C@@]2(C)C(CC[C@]3(C)C2CC=C2[C@@H]4CC(C)(C)CC[C@]4(C(=O)O)CC[C@]23C)C1(C)C (stereo partly shown) [Compound 19] |  |  | > 256 | > 256 | 109 (≈ 198 µM) | 155 (≈ 281 µM) |  |  |  |
| COC(=O)[C@]12CCC(C)(C)C[C@H]1C1=CCC3[C@@]4(C)CC[C@H](OC(=O)CCCc5cn(CSc6ccccc6)nn5)C(C)(C)C4CC[C@@]3(C)[C@]1(C)CC2 (stereo partly shown) [Compound 34] | > 256 | > 256 | > 256 |  |  |  |  |  |  |
| CC(C)c1ccc2c(c1)CCC1[C@](C)(COC(=O)CCCCc3cn(Cc4ccccc4)nn3)CCC[C@]21C (stereo partly shown) [Compound 8] | > 256 | > 256 | > 256 | > 256 |  |  |  |  |  |
| CC(C)c1ccc2c(c1)CCC1[C@](C)(COC(=O)CCc3cn(Cc4ccccc4)nn3)CCC[C@]21C (stereo partly shown) [Compound 7] | > 256 | > 256 | > 256 | > 256 |  |  |  |  |  |
| Cc1ccc(S(=O)(=O)n2cc(CCCCC(=O)OC[C@]3(C)CCC[C@]4(C)c5ccc(C(C)C)cc5CCC34)nn2)cc1 (stereo partly shown) [Compound 16] |  |  | 199 (≈ 336 µM) | 129 (≈ 218 µM) | 71 (≈ 120 µM) | 73 (≈ 123 µM) |  |  |  |
| C#CCCC(=O)O[C@H]1CC[C@@]2(C)C(CC[C@]3(C)C2CC=C2[C@@H]4CC(C)(C)CC[C@]4(C(=O)O)CC[C@]23C)C1(C)C (stereo partly shown) [Compound 17] |  |  | 252 (≈ 469 µM) | 196 (≈ 365 µM) | > 256 | > 256 |  |  |  |
| Cc1ccc(S(=O)(=O)n2cc(CCC(=O)O[C@H]3CC[C@@]4(C)C(CC[C@]5(C)C4CC=C4[C@@H]6CC(C)(C)CC[C@]6(C(=O)O)CC[C@]45C)C3(C)C)nn2)cc1 (stereo partly shown) [Compound 27] |  |  | 43 (≈ 58.6 µM) | > 256 | > 256 | > 256 |  |  |  |
| Cc1ccc(S(=O)(=O)n2cc(CCC(=O)OC[C@]3(C)CCC[C@]4(C)c5ccc(C(C)C)cc5CCC34)nn2)cc1 (stereo partly shown) [Compound 15] |  |  | 69 (≈ 122 µM) | 232 (≈ 412 µM) | 89 (≈ 158 µM) | 53 (≈ 94 µM) |  |  |  |
| COc1ccc(-n2cc(CCC(=O)OC[C@]3(C)CCC[C@]4(C)c5ccc(C(C)C)cc5CCC34)nn2)cc1 (stereo partly shown) [Compound 11] | > 256 | > 256 | > 256 | > 256 |  |  |  |  |  |
| CC(C)c1ccc2c(c1)CCC1[C@](C)(COC(=O)CCc3cn(Cc4cccc(Cl)c4)nn3)CCC[C@]21C (stereo partly shown) [Compound 13] |  | > 256 | > 256 | > 256 | 242 (≈ 453 µM) |  |  |  |  |
| CC(C)c1ccc2c(c1)CCC1[C@](C)(C(=O)OCc3cn(CSc4ccccc4)nn3)CCC[C@]21C (stereo partly shown) [Compound 3] | > 256 | > 256 | > 256 | > 256 |  |  |  |  |  |
| CC1(C)CC[C@]2(C(=O)O)CC[C@]3(C)C(=CCC4[C@@]5(C)CC[C@H](OC(=O)CCc6cn(-c7ccccc7)nn6)C(C)(C)C5CC[C@]43C)[C@@H]2C1 (stereo partly shown) [Compound 21] | > 256 | > 256 | > 256 | > 256 |  |  |  |  |  |
| CC(C)c1ccc2c(c1)CCC1[C@](C)(COC(=O)CCc3cn(-c4ccccc4)nn3)CCC[C@]21C (stereo partly shown) [Compound 5] |  |  | 223 (≈ 459 µM) | > 256 | 218 (≈ 449 µM) | 193 (≈ 397 µM) |  |  |  |
| CC(C)c1ccc2c(c1)CC[C@H]1[C@](C)(CO)CCC[C@]21C [Dehydroabietinol, dehydroabietinol, reference compound] |  |  |  |  |  |  | 63 | 40 | 66 |
| CC(C)c1ccc2c(c1)CCC1[C@](C)(C(=O)OCCc3cn(-c4ccccc4)nn3)CCC[C@]21C (stereo partly shown) [Compound 2] | > 256 | > 256 | > 256 | > 256 |  |  |  |  |  |
| CC1(C)CC[C@]2(C(=O)O)CC[C@]3(C)C(=CCC4[C@@]5(C)CC[C@H](OC(=O)CCCc6cn(CSc7ccccc7)nn6)C(C)(C)C5CC[C@]43C)[C@@H]2C1 (stereo partly shown) [Compound 33] | > 256 | > 256 | > 256 |  |  |  |  |  |  |
| CC(C)c1ccc2c(c1)CC[C@H]1[C@](C)(C(=O)O)CCC[C@]21C [DHA, Dehydroabietic acid] |  |  | 212 (≈ 706 µM) |  | 44 (≈ 146 µM) | 72 (≈ 240 µM) |  |  |  |
| COC(=O)[C@]12CCC(C)(C)C[C@H]1C1=CCC3[C@@]4(C)CC[C@H](OC(=O)CCCc5cn(S(=O)(=O)c6ccc(C)cc6)nn5)C(C)(C)C4CC[C@@]3(C)[C@]1(C)CC2 (stereo partly shown) [Compound 32] | > 256 | > 256 | > 256 |  |  |  |  |  |  |

Reference: PMC6155273, “Antiprotozoal Activity of Triazole Derivatives of Dehydroabietic Acid and Oleanolic Acid” (Molecules : A Journal of Synthetic Chemistry and Natural …, 2017)
